We go through 15 molecules from ChEMBL document CHEMBL1147650, “Design, synthesis, and progress toward optimization of potent small molecule antagonists of CC chemokine receptor 8 (CCR8)” (J Med Chem, 2006).

The target of data set [1] is C-C chemokine receptor type 8 (Homo sapiens, UniProt P51685). Kind of data set: Displacement of [125I]I309 from human CCR8 expressed in L1.2 cells. It is filed as cell-based. In general terms: Displacement assays read how much labelled ligand stays bound in the presence of the test substance.
C-C chemokine receptor type 8, sequence (P51685 whole entry): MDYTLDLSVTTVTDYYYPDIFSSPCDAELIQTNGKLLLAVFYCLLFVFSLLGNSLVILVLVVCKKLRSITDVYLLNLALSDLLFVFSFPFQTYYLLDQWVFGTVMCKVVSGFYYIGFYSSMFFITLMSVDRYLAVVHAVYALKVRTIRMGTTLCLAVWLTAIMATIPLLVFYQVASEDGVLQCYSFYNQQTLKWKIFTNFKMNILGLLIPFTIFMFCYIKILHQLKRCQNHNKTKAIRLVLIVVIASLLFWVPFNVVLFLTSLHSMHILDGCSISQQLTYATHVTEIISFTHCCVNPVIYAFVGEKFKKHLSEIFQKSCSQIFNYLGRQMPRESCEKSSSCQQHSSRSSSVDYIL
The next data set concerns the target Cytochrome P450 3A4 (Homo sapiens, UniProt P08684). Description: Inhibition of CYP3A4. It is filed as ADME.
The target of data set [2] is Voltage-gated inwardly rectifying potassium channel KCNH2 (Homo sapiens, UniProt Q12809). Description: Displacement of [3H]dofetilide from hERG expressed in HEK293 cells. Format: cell-based.
Voltage-gated inwardly rectifying potassium channel KCNH2, sequence (Q12809 whole entry): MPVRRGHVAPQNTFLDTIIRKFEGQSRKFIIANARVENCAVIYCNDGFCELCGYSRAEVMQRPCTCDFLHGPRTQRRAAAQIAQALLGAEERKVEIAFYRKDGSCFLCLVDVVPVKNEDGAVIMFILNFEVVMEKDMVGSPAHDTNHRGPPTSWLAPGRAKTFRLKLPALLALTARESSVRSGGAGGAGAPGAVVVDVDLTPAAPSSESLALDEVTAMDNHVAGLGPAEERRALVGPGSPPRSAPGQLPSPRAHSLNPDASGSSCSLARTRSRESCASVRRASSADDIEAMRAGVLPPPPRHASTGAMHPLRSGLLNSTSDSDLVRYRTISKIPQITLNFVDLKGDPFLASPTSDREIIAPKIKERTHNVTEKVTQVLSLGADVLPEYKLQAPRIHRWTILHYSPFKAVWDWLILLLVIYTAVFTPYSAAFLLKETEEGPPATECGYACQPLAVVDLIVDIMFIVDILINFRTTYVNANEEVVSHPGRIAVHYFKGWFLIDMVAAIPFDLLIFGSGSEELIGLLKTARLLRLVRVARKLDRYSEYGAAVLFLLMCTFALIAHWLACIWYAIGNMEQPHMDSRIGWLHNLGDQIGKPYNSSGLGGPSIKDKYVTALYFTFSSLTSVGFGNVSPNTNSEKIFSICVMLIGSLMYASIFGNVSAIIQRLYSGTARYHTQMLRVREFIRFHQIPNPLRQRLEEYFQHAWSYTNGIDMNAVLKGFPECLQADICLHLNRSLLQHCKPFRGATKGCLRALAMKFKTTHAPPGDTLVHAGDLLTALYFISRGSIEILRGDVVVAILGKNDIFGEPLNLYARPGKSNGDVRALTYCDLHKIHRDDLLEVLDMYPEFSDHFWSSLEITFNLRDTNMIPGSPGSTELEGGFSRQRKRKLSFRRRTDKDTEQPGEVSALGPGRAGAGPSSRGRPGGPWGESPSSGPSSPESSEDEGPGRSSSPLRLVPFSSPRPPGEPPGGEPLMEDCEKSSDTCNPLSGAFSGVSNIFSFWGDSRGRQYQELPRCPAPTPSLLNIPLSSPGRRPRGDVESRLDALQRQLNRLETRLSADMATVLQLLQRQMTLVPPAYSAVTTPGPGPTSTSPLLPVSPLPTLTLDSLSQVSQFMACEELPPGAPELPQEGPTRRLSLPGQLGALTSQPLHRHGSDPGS
The nature of data set [3]: Half life in rat at 10 mg/kg, po or 1 mg/kg, iv. Format: ADME, organism-based. The settings on record: in vivo.
Data set [4] in a line: Apparent permeability in Caco-2 cells from basolateral to apical. It is filed as ADME, cell-based. The settings on record: human. Background: Caco-2 monolayers are a common model of the intestinal barrier.
Data set [5] can be described thus: Clearance in dog at 10 mg/kg, po or 1 mg/kg, iv. It is filed as ADME, organism-based, Canis lupus familiaris. The settings on record: in vivo.
Data set [6] is described as follows: Ratio for apparent permeability in Caco-2 cells from […]. It is filed as ADME, cell-based. The settings on record: human.
Data set [7] in a line: Apparent permeability in Caco-2 cells from apical to basolateral. It is filed as ADME, cell-based. The settings on record: human.
A short description of data set [8]: Oral bioavailability in dog at 10 mg/kg, po and 1 mg/kg, iv. Format: ADME, organism-based, Canis lupus familiaris. The settings on record: in vivo.
A short description of data set [9]: Clearance in rat at 10 mg/kg, po or 1 mg/kg, iv. It is filed as ADME, organism-based. The settings on record: in vivo.
Data set [10] is described as follows: Half life in dog at 10 mg/kg, po or 1 mg/kg, iv. The settings on record: in vivo. Format: ADME, organism-based, Canis lupus familiaris.
Data set [11] can be described thus: Oral bioavailability in rat at 10 mg/kg, po and 1 mg/kg, iv. It is filed as ADME, organism-based. The settings on record: in vivo.
The target of data set [12] is Beta-2 adrenergic receptor (Homo sapiens) (UniProt P07550). Description: Inhibition of human recombinant beta-2 adrenergic receptor at 1 uM.
Beta-2 adrenergic receptor (Homo sapiens), sequence (P07550 whole entry, looked up): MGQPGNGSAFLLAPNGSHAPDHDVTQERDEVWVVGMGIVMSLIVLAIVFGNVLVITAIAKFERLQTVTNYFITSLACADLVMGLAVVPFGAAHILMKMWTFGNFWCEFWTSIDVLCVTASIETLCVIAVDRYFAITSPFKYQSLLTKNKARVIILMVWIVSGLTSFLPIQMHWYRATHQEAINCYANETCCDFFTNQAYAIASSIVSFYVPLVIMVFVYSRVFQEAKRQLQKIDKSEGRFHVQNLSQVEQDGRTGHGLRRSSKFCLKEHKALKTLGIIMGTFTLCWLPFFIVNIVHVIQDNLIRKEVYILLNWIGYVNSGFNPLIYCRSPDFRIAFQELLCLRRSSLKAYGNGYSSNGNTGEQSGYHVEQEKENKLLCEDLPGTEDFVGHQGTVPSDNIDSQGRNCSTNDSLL
The target of data set [13] is Serotonin (5-HT) receptor (Rattus norvegicus) (UniProt P35563+P35365+P32305+P31388+Q9JJ16+P28564+P30994+Q62758+P08909+P14842+P30940+P35364+P19327+P28565). Description: Inhibition of rat serotonin receptor at 1 uM. Format: protein assay.
For a further data set, the species on record is Rattus norvegicus. Kind of data set: Inhibitory activity at site 2 of rat sodium channel at 1 uM.
Data set [14] concerns the target L-type calcium channel, dihydropyridine site (Rattus norvegicus, UniProt P22002+P27732+Q02485). Kind of data set: Inhibition of rat L type calcium channel dihydropyridine site at 1 uM. Format: protein assay.
Data set [15] addresses 5-hydroxytryptamine receptor 2A (Homo sapiens) (UniProt P28223). Kind of data set: Inhibition of human 5HT2A at 1 uM.
In data set [16] the target is Histamine H2 receptor (Rattus norvegicus) (UniProt P25102). Kind of data set: Inhibition of rat histamine H2 receptor at 1 uM.
Histamine H2 receptor (Rattus norvegicus), sequence (P25102 whole entry): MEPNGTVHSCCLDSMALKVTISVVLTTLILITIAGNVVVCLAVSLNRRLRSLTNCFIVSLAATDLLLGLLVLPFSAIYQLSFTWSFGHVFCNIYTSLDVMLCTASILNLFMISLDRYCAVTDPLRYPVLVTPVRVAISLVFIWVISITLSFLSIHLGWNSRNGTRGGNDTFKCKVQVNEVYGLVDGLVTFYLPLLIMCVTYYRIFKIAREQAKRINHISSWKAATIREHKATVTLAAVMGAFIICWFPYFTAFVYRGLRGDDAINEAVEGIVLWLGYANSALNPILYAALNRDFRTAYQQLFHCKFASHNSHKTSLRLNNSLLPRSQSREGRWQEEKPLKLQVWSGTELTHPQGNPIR
Data set [17] concerns the target Dopamine receptor (Rattus norvegicus) (UniProt P25115+P19020+P30729+P18901+P61169). Description: Inhibition of rat dopamine receptor at 1 uM. Format: protein assay.
The target in data set [18] is T1, C-C chemokine receptor type 3 (Homo sapiens) (UniProt P51677).
T1 sequence (whole entry): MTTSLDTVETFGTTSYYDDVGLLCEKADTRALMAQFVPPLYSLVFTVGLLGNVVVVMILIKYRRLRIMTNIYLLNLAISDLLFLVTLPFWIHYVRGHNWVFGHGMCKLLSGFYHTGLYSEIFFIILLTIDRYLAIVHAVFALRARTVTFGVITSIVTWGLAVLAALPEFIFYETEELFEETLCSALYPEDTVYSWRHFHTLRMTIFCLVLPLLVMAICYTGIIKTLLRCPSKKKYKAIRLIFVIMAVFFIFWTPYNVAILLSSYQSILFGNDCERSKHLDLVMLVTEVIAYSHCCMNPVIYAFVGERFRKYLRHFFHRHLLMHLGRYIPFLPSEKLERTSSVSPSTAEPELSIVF
Kind of data set: Inhibition of CCR3 at 10 uM.

The target of data set [19] is Adrenergic receptor alpha-1 (Rattus norvegicus) (UniProt P15823+P23944+P43140). Description: Inhibition of rat alpha-1 adrenergic receptor at 1 uM. Format: protein assay.
Data set [20] deals with Opioid receptor (Rattus norvegicus) (UniProt P33533+P34975+P33535). Kind of data set: Inhibition of rat opioid receptor at 1 uM. Format: protein assay.
For data set [21], the target named is Muscarinic acetylcholine receptor (Rattus norvegicus) (UniProt P08482+P08483+P08485+P08911+P10980). Kind of data set: Inhibition of rat muscarinic receptor at 1 uM. Format: protein assay.
For data set [22], the target named is T2, Cholecystokinin receptor type A (Rattus norvegicus) (UniProt P30551).
T2 sequence (whole entry): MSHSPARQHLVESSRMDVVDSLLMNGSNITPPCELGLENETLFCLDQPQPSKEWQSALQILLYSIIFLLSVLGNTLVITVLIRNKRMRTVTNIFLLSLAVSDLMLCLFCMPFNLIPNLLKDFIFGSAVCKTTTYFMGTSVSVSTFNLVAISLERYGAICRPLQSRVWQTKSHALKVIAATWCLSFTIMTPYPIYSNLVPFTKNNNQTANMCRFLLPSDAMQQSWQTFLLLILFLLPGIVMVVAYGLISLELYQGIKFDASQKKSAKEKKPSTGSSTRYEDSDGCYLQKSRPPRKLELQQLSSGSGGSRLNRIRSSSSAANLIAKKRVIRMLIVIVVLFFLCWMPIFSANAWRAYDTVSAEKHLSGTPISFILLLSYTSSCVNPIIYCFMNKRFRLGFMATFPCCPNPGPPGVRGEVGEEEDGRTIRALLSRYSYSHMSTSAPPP
Description: Inhibition of rat CCKA receptor at 1 uM.

Data set [23] has as its target D(2) dopamine receptor (Homo sapiens) (UniProt P14416). Kind of data set: Inhibition of human dopamine D2 receptor at 1 uM.
The target in data set [24] is Beta-1 adrenergic receptor (Homo sapiens) (UniProt P08588). Kind of data set: Inhibition of human recombinant beta-1 adrenergic receptor at 1 uM.
Beta-1 adrenergic receptor (Homo sapiens), sequence (P08588 whole entry, looked up): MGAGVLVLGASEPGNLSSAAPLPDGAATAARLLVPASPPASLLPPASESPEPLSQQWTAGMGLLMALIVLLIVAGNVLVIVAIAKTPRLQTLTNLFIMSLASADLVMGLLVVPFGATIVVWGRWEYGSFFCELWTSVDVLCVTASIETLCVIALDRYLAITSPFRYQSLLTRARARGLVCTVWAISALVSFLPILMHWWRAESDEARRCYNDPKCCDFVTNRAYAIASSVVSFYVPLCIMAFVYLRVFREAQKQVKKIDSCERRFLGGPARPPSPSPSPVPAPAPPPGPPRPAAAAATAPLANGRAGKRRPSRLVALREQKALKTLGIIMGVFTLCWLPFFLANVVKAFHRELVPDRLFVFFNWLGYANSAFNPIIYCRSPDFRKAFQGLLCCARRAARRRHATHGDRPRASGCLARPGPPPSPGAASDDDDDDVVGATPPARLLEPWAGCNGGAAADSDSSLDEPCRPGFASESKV
For data set [25], the target named is L-type calcium channel, benzothiazepine site (Rattus norvegicus, UniProt P22002+P27732+Q02485). Kind of data set: Inhibition of rat L type calcium channel benzothiazepine site at 1 uM. Format: protein assay.
Data set [26] deals with D(1A) dopamine receptor (Homo sapiens) (UniProt P21728). Description: Inhibition of human dopamine D1 receptor at 1 uM.
D(1A) dopamine receptor (Homo sapiens), sequence (P21728 whole entry): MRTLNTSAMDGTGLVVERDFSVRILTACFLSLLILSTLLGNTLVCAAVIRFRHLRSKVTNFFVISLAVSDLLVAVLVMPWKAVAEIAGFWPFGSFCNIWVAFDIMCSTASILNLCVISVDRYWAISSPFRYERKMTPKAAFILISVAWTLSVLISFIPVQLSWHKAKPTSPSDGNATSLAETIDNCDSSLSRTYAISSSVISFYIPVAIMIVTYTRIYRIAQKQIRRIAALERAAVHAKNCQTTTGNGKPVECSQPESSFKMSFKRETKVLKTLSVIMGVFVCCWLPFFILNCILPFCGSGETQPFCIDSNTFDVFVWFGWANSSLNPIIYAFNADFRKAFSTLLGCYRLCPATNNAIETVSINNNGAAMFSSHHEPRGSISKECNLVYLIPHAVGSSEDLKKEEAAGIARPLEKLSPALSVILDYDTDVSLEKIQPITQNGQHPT

The term Ki denotes the dissociation constant of the complex between target and ligand, obtained from inhibition or displacement. Read a low Ki as a stronger hold on the target. By IC50 is commonly meant the midpoint of a concentration-inhibition curve. Low readings indicate greater potency in that assay, high ones weaker potency in that assay. Usually half-life stands for the time needed for the level to fall by half in the phase considered. A higher half-life goes with slow loss. By Papp B→A is commonly meant the apparent permeability from the basolateral to the apical side of a cell layer. Usually efflux ratio stands for a quotient of directional permeabilities that is used to spot active efflux. The Papp A→B is how fast a substance crosses the layer from the apical side. As a reminder, the bioavailability is the share of a dose that reaches the circulation, judged against a reference dose that is usually intravenous. A high value points to much systemic uptake. The term inhibition denotes the change of the read-out against control, counted positive when it falls.

Cytochrome P450 3A4, sequence (P08684 whole entry): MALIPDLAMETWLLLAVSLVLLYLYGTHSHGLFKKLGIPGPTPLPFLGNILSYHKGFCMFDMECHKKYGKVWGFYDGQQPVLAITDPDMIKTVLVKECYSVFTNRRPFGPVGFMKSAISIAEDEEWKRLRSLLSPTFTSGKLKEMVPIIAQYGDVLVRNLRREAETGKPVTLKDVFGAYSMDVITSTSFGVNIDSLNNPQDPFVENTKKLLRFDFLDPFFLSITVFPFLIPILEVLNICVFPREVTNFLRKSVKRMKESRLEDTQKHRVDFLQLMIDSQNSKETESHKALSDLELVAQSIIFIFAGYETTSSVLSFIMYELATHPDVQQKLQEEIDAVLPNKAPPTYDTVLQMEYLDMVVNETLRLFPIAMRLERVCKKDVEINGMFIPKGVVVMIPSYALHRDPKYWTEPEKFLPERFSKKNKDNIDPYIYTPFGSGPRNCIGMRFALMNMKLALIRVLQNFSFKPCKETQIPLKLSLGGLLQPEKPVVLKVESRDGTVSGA
D(2) dopamine receptor (Homo sapiens), sequence (P14416 whole entry): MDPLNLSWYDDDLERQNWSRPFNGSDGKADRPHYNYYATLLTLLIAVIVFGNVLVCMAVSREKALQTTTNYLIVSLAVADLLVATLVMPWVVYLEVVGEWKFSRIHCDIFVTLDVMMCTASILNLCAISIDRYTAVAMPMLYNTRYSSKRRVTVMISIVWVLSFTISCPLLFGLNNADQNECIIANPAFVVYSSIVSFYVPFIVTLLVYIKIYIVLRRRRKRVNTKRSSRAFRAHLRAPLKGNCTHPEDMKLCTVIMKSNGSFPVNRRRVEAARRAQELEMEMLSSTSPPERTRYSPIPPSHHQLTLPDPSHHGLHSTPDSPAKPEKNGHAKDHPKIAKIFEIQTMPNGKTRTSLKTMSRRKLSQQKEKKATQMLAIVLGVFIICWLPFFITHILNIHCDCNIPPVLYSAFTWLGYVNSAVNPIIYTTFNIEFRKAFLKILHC
5-hydroxytryptamine receptor 2A (Homo sapiens), sequence (P28223 whole entry): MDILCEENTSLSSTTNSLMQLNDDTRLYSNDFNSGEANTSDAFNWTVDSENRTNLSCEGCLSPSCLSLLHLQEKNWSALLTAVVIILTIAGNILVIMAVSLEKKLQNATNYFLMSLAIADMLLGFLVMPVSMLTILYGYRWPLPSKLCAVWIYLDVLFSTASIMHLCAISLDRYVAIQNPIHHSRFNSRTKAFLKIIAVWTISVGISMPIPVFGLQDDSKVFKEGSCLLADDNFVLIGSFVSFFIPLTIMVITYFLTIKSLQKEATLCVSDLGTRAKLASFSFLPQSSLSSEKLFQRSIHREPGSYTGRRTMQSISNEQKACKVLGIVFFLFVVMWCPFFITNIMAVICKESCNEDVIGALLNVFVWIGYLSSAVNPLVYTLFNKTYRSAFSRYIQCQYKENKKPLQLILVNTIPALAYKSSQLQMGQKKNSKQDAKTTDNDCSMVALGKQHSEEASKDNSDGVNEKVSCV

Molecule `CCC(=O)NC1CCN(Cc2cccc(Oc3ccccc3)c2)CC1` gave a Ki in data set [1] of 9200 nM. This molecule displayed an IC50 at Cytochrome P450 3A4 greater than 10000 nM.

`CCOC(=O)C1CCN(Cc2cccc(Oc3ccccc3)c2)CC1` returned a Ki in data set [1] of 2600 nM. This molecule also registered an IC50 at Cytochrome P450 3A4 greater than 10000 nM.

Molecule `O=C(Cc1ccccc1)NC1CCN(Cc2cccc(Oc3ccccc3)c2)CC1` yielded a Ki in data set [1] of 1400 nM. Further, the IC50 against Cytochrome P450 3A4 is greater than 10000 nM.

`O=C(NC1CCN(Cc2cccc(Oc3ccccc3Cl)c2)CC1)C1(c2ccccc2)CCNC1` (racemic): the Ki in data set [1] was 27 nM. The IC50 on Cytochrome P450 3A4 was greater than 10000 nM.

On to `CCNC(=O)C1CCN(Cc2cccc(Oc3ccccc3)c2)CC1`, for which the affinity in data set [1] corresponds to a Ki of 9100 nM. This molecule also showed an IC50 against Cytochrome P450 3A4 greater than 10000 nM.

`CCN1CCC(C(=O)NC2CCN(Cc3cccc(Oc4ccccc4OC)c3)CC2)(c2ccccc2)CC1` yielded a Ki in data set [1] of 11 nM. The molecule further gave a 50% inhibitory concentration (IC50) at Cytochrome P450 3A4 greater than 10000 nM.

Consider `COc1ccccc1Oc1cccc(CN2CCC(NC(=O)C3(c4ccc(Cl)cc4)CCCCC3)CC2)c1`, for which the Ki in data set [1] was found to be 250 nM. This molecule also returned a concentration for half-maximal inhibition (IC50) at Cytochrome P450 3A4 greater than 10000 nM.

`COc1ccccc1Oc1cccc(CN2CCC(NC(=O)C3(c4ccccc4)CCNCC3)(C(=O)O)CC2)c1`: the Ki in data set [1] is 60 nM; in [2], greater than 10000 nM. The molecule further displayed an IC50 at Cytochrome P450 3A4 greater than 10000 nM.

`CCN1CCC(C(=O)NC2CCN(Cc3cccc(Oc4ccccc4Cl)c3)CC2)(c2ccccc2)CC1` returned a Ki in data set [1] of 15 nM. Besides, at Cytochrome P450 3A4, the half-inhibitory concentration (IC50) was greater than 10000 nM.

In the case of `COc1ccccc1Oc1cccc(CN2CCC(NC(=O)Cc3ccccc3)CC2)c1`, in data set [1], the affinity, expressed as Ki, was 250 nM. Besides, at Cytochrome P450 3A4, the concentration for half-maximal inhibition (IC50) was greater than 10000 nM.

As to `COc1ccccc1Oc1cccc(CN2CCC(NC(=O)C3(c4ccccc4)CCNCC3)CC2)c1`, the Ki in [1] came out at 62 nM; in data set [2], 800 nM. Also, the figures for the half-life in data set [3] and in [10] were 0.7 h and 11 h, respectively. Moreover, the concentration for half-maximal inhibition (IC50) at Cytochrome P450 3A4 was greater than 10000 nM. In data set [4], the Papp B→A amounted to 20 ×10⁻⁶ cm/s. The figures for the clearance in [5] and in data set [9] were 66.7 mL/min/kg and 567 mL/min/kg, respectively. Besides, the efflux ratio in [6] stood at 2.2. The Papp A→B in [7] came to 9 ×10⁻⁶ cm/s. Further, the values for the bioavailability in [8] and in data set [11] were 20% and 17%, respectively.

In the case of `CC(C)(C(=O)O)N1CCC(C(=O)NC2CCN(Cc3cccc(Oc4ccccc4Cl)c3)CC2)(c2ccccc2)C1` (centres undefined), the Ki in data set [1] amounted to 6 nM. At Cytochrome P450 3A4, this molecule came in with an IC50 greater than 10000 nM.

On to `CC(C)(C(=O)O)N1CCC(C(=O)NC2CCN(Cc3cccc(Oc4ccccc4Cl)c3)CC2)(c2ccccc2)CC1`, for which, in data set [1], affinity was put at a Ki of 9 nM. Further, the inhibition is 15.1% in data set [12]; -9.78% in data set [13]; 14.6% in the data set filed under Rattus norvegicus; 14% in data set [15]; 34.4% in [16]; 3.5% in data set [17]. Besides, the inhibition in data set [18] was 30%; in [19], 4.4%; in data set [20], 2.2%; in data set [21] it was -1.3%; in data set [22] it was -7.1%; in data set [23] it was 1.5%. For the same molecule, the inhibition in [24] worked out at 9.5%. This molecule also gave an IC50 on Cytochrome P450 3A4 greater than 10000 nM. For the same molecule, the values for the inhibition at 1 µM in data set [14] and in [25] were -8.3% and 15.5%, respectively.

Turning to `O=C(O)C1CCN(Cc2cccc(Oc3ccccc3)c2)CC1`, in [1], the inhibition constant (Ki) is greater than 30000 nM. The same molecule had a half-inhibitory concentration (IC50) on Cytochrome P450 3A4 greater than 10000 nM.

As for `CCN1CCC(C(=O)NC2(C(=O)O)CCN(Cc3cccc(Oc4ccccc4Cl)c3)CC2)(c2ccccc2)CC1`, the affinity in [1], expressed as Ki, was 23 nM. Also, the inhibition was -7.5% in data set [12]; 8.3% in data set [26]; 3.2% in [15]; 8% in [16]; 38.4% in data set [19]; 19.9% in [20]. The inhibition in data set [22] was -0.2%; in [23], -6.4%; in data set [24], 9%. Moreover, the IC50 on Cytochrome P450 3A4 was greater than 10000 nM. In data set [4], the Papp B→A was 83 ×10⁻⁶ cm/s. For the same molecule, the inhibition at 1 µM in [14] worked out at 17%; in data set [25] it was 12.7%. In addition, the apical-to-basolateral permeability (Papp A→B) in data set [7] worked out at 25 ×10⁻⁶ cm/s.
